Patent publication US20260193264A1, “BENZOYPARAZINE PYRAZINES AND THEIR USES” (FOGHORN THERAPEUTICS INC., priority 2022, published 2026)

What was measured:
[1] = biological target: T1, HiBiT-BRM fusion protein in stable HeLa cell line (Homo sapiens, UniProt P51531); assay: HiBiT-BRM cell-based degradation assay (Nano-Glo HiBiT Lytic Detection, 24 h); set-up: DC50: scale not given here; conditions: HeLa HiBiT-BRM cells; for DC50: read-out: BRM HiBit Degradation IC50; for BRM HiBit Degradation Maximum (%): top dose 30 μM
T1 construct: expressed in transfected cells
T1 sequence (P51531 whole entry, the tested form may be a part): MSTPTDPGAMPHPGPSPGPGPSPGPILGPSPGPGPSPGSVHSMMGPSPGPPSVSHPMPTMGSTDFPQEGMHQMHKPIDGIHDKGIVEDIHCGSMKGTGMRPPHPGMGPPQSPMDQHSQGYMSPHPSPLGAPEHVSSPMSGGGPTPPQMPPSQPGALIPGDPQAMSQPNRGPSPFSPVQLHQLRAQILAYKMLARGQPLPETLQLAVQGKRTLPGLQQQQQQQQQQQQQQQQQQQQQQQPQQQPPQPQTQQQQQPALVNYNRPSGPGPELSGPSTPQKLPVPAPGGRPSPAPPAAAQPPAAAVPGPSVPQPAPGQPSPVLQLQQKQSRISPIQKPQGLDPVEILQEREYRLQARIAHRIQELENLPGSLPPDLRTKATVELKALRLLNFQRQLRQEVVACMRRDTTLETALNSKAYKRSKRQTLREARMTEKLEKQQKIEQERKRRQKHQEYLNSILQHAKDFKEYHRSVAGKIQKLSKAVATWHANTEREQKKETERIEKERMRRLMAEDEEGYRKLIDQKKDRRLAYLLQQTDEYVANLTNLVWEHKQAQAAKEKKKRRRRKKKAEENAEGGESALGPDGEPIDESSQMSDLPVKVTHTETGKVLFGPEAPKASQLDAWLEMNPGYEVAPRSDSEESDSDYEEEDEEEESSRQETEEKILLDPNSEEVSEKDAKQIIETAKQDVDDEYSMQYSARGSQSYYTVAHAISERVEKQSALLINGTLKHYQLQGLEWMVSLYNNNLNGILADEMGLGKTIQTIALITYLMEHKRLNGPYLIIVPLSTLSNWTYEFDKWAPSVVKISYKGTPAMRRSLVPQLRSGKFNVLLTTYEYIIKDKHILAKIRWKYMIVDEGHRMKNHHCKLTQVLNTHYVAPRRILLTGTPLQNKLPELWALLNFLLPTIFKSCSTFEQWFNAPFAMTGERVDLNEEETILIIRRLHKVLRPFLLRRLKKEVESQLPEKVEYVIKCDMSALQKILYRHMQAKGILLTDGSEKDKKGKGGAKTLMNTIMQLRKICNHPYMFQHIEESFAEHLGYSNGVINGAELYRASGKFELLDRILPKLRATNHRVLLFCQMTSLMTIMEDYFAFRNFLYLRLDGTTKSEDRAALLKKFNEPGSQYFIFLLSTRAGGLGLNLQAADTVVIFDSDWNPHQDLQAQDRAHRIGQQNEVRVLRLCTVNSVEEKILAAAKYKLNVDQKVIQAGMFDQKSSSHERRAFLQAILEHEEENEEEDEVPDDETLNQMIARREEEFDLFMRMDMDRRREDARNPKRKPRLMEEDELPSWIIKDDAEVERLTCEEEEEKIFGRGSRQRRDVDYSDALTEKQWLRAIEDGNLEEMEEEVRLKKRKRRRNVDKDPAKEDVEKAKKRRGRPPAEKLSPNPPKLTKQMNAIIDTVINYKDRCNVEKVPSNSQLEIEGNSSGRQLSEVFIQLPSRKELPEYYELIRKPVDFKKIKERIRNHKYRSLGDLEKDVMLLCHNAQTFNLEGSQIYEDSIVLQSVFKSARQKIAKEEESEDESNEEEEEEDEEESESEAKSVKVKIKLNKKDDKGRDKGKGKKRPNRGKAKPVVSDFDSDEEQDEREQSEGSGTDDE
Summary of the method: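 Percent degradation was scaled between DMSO-treated cells and cells given 2 μM of a known BRM/BRG1 degrader. Readout was NanoBiT luminescence after lytic detection. HeLa cells stably expressing HiBiT-BRM were dosed for 24 h, 10 points, 3-fold steps from 30 μM final, in duplicate.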

[2] = biological target: T2, HiBit-BRG1 fusion protein in stable HeLa cell line expressing HiBit-BRG1 and LgBit (Homo sapiens, UniProt P51532); assay: HiBiT-BRG1 cell-based degradation assay (Nano-Glo HiBiT, 24 h); conditions: HeLa HiBit-BRG1/LgBit cells; for DC50: read-out: BRMG1 HiBit Degradation IC50; for Dmax: top dose 30 μM, read-out: BRG1 HiBit Degradation Maximum (%)
T2 construct: expressed in transfected cells
T2 sequence (P51532 whole entry, the tested form may be a part): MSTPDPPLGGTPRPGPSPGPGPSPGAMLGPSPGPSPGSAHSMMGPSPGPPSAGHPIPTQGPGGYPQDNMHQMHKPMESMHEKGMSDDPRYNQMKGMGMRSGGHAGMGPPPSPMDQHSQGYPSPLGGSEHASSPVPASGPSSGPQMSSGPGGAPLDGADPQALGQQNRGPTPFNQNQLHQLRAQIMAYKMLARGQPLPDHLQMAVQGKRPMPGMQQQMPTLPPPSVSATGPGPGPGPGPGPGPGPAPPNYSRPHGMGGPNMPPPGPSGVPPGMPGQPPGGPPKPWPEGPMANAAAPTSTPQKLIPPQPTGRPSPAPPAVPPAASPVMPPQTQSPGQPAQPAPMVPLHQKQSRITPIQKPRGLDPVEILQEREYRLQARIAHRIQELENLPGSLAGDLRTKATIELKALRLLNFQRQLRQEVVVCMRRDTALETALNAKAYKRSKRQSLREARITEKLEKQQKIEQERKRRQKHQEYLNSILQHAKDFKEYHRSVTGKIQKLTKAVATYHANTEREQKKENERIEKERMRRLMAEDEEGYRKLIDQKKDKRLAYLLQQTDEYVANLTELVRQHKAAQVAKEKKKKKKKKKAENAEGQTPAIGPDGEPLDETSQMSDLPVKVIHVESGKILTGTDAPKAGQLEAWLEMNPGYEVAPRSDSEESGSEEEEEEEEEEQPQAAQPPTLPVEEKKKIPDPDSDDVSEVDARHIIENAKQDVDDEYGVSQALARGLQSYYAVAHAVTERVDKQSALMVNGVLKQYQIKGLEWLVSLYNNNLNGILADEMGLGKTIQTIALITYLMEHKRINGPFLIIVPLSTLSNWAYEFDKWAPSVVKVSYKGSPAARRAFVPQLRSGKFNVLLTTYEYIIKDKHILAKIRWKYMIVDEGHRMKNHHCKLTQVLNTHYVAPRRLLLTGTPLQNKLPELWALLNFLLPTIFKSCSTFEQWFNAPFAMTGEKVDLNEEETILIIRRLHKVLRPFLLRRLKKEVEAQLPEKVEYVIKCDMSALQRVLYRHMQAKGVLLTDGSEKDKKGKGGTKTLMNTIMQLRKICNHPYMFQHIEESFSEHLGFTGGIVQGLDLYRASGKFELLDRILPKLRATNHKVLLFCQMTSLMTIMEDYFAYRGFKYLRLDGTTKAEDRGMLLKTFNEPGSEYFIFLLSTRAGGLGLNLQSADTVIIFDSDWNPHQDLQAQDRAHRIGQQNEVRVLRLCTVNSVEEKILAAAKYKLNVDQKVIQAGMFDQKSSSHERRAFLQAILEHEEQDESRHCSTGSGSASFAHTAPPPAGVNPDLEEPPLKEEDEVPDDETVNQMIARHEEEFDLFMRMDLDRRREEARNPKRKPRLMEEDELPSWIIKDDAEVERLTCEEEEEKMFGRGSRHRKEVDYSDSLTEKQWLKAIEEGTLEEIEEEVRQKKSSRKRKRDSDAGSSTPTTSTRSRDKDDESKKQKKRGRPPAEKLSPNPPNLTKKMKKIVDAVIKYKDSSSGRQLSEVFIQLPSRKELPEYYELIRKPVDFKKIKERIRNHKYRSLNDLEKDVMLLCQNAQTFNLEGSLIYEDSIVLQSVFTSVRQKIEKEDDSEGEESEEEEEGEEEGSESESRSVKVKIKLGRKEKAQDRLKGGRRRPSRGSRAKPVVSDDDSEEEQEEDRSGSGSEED
Summary of the method: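 Degradation calculated from NanoBiT luminescence relative to DMSO-treated cells (high) and cells given 2 μM known BRM/BRG1 degrader (low). HeLa cells stably expressing HiBiT-BRG1 plus LgBiT were exposed to compound for 24 h before lytic HiBiT detection.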

DC50 [1]	DC50 [2]	Dmax [2]	Compound	BRM HiBit Degradation Maximum (%) [1]
< 10 nM	< 10 nM	> 75%	Cc1ncsc1-c1ccc([C@H](C)NC(=O)[C@@H]2C[C@@H](O)CN2C(=O)[C@@H](c2cc(N3CCOC4(CCN(c5ccc6cc(-c7ccccc7O)nnc6c5)CC4)C3)no2)C(C)C)cc1 [Compound 148, (2S,4R)-4-hydroxy-1-((R)-2-(3-(9-(3-(2-hydroxyphenyl)cinnolin-7-yl)-1-oxa-4,9-diazaspiro [5.5]undecan-4-yl)isoxazol-5-yl)-3-methylbutanoyl)-N-((S)-1-(4-(4-methylthiazol-5-yl)phenyl)ethyl)pyrrolidine-2-carboxamide]	A (“A” indicates maximum degradation ≥75%)
< 10 nM	< 10 nM	> 75%	Cc1ncsc1-c1ccc([C@H](C)NC(=O)[C@@H]2C[C@@H](O)CN2C(=O)[C@H](C(C)C)n2cc(-c3ccc4nnc(-c5cccc(F)c5O)cc4c3)nn2)cc1 [Compound 150, (2S,4R)-1-((S)-2-(4-(3-(3-fluoro-2-hydroxyphenyl)cinnolin-6-yl)-1H-1,2,3-triazol-1-yl)-3-methylbutanoyl)-4-hydroxy-N-((S)-1-(4-(4-methylthiazol-5-yl)phenyl)ethyl)pyrrolidine-2-carboxamide]	A (“A” indicates maximum degradation ≥75%)
< 10 nM		< 50%	Cc1ncsc1-c1ccc([C@H](C)NC(=O)[C@@H]2C[C@@H](O)CN2C(=O)[C@@H](c2cc(N3CCN4CCN(c5ccc6nnc(-c7ccccc7O)cc6c5)CC4C3)no2)C(C)C)cc1 (stereo partly drawn) [Compound 151, (2S,4R)-4-hydroxy-1-((2R)-2-(3-(8-(3-(2-hydroxyphenyl)cinnolin-6-yl)octahydro-2H-pyrazino[1,2-a]pyrazin-2-yl)isoxazol-5-yl)-3-methylbutanoyl)-N-((S)-1-(4-(4-methylthiazol-5-yl)phenyl)ethyl)pyrrolidine-2-carboxamide]	A (“A” indicates maximum degradation ≥75%)
< 10 nM	< 10 nM	> 75%	Cc1ncsc1-c1ccc([C@H](C)NC(=O)[C@@H]2C[C@@H](O)CN2C(=O)[C@@H](c2cc(N3CCN4CCN(c5ccc6cc(-c7ccccc7O)nnc6c5)CC4C3)no2)C(C)C)cc1 (stereo partly drawn) [Compound 155, (2S,4R)-4-hydroxy-1-((2R)-2-(3-(8-(3-(2-hydroxyphenyl)cinnolin-7-yl)octahydro-2H-pyrazino[1,2-a]pyrazin-2-yl)isoxazol-5-yl)-3-methylbutanoyl)-N-((S)-1-(4-(4-methylthiazol-5-yl)phenyl)ethyl)pyrrolidine-2-carboxamide]	A (“A” indicates maximum degradation ≥75%)
< 10 nM		< 50%	CNC(=O)[C@@H]1C[C@@H](O)CN1C(=O)[C@@H](c1cc(N2CC3(CN(c4ccc5cc(-c6ccccc6O)nnc5c4)C3)C2)no1)C(C)C [Compound 156, (2S,4R)-4-hydroxy-1-((R)-2-(3-(6-(3-(2-hydroxyphenyl)cinnolin-7-yl)-2,6-diazaspiro[3.3]heptan-2-yl)isoxazol-5-yl)-3-methylbutanoyl)-N-methylpyrrolidine-2-carboxamide]	A (“A” indicates maximum degradation ≥75%)
< 10 nM	< 10 nM	> 75%	COc1cc2nnc(-c3ccccc3O)cc2cc1N1CC2(CN(c3cc([C@H](C(=O)N4C[C@H](O)C[C@H]4C(=O)N[C@@H](C)c4ccc(-c5scnc5C)cc4)C(C)C)on3)C2)C1 [Compound 158, (2S,4R)-4-hydroxy-1-((R)-2-(3-(6-(3-(2-hydroxyphenyl)-7-methoxycinnolin-6-yl)-2,6-diazaspiro[3.3]heptan-2-yl)isoxazol-5-yl)-3-methylbutanoyl)-N-((S)-1-(4-(4-methylthiazol-5-yl)phenyl)ethyl)pyrrolidine-2-carboxamide]	A (“A” indicates maximum degradation ≥75%)
< 10 nM	< 10 nM	> 75%	COc1cc2cc(-c3ccccc3O)nnc2cc1N1CC2(CN(c3cc([C@H](C(=O)N4C[C@H](O)C[C@H]4C(=O)N[C@@H](C)c4ccc(-c5scnc5C)cc4)C(C)C)on3)C2)C1 [Compound 159, (2S,4R)-4-hydroxy-1-((R)-2-(3-(6-(3-(2-hydroxyphenyl)-6-methoxycinnolin-7-yl)-2,6-diazaspiro[3.3]heptan-2-yl)isoxazol-5-yl)-3-methylbutanoyl)-N-((S)-1-(4-(4-methylthiazol-5-yl)phenyl)ethyl)pyrrolidine-2-carboxamide]	A (“A” indicates maximum degradation ≥75%)

Second part, the molecule before the results:

Compound	DC50 [1]	DC50 [2]	Dmax [2]	BRM HiBit Degradation Maximum (%) [1]
Cc1cc2nnc(-c3ccccc3O)cc2cc1-c1cc([C@H](C(=O)N2C[C@H](O)C[C@H]2C(=O)N[C@@H](C)c2ccc(-c3scnc3C)cc2)C(C)C)on1 [Compound 149, (2S,4R)-4-hydroxy-1-((R)-2-(3-(3-(2-hydroxyphenyl)-7-methylcinnolin-6-yl)isoxazol-5-yl)-3-methylbutanoyl)-N-((S)-1-(4-(4-methylthiazol-5-yl)phenyl)ethyl)pyrrolidine-2-carboxamide]	< 10 nM	> 10 nM	> 50%	A (“A” indicates maximum degradation ≥75%)
Cc1ncsc1-c1ccc([C@H](C)NC(=O)[C@@H]2C[C@@H](O)CN2C(=O)[C@@H](c2cc(N3CC4(C3)CN(c3cc5cc(-c6ccccc6O)nnc5cc3C3CC3)C4)no2)C(C)C)cc1 [Compound 152, (2S,4R)-1-((R)-2-(3-(6-(7-cyclopropyl-3-(2-hydroxyphenyl)cinnolin-6-yl)-2,6-diazaspiro[3.3]heptan-2-yl)isoxazol-5-yl)-3-methylbutanoyl)-4-hydroxy-N-((S)-1-(4-(4-methylthiazol-5-yl)phenyl)ethyl)pyrrolidine-2-carboxamide]	< 10 nM	< 10 nM	> 75%	A (“A” indicates maximum degradation ≥75%)
Cc1ncsc1-c1ccc([C@H](C)NC(=O)[C@@H]2C[C@@H](O)CN2C(=O)[C@@H](c2cc(N3CCC4(CC3)CN(c3ccc5cc(-c6ccccc6O)nnc5c3)CCN4C)no2)C(C)C)cc1 [Compound 153, (2S,4R)-4-hydroxy-1-((R)-2-(3-(4-(3-(2-hydroxyphenyl)cinnolin-7-yl)-1-methyl-1,4,9-triazaspiro[5.5]undecan-9-yl)isoxazol-5-yl)-3-methylbutanoyl)-N-((S)-1-(4-(4-methylthiazol-5-yl)phenyl)ethyl)pyrrolidine-2-carboxamide]	< 10 nM		< 50%	A (“A” indicates maximum degradation ≥75%)
Cc1ncsc1-c1ccc([C@H](C)NC(=O)[C@@H]2C[C@@H](O)CN2C(=O)[C@@H](c2cc(N3CCCC4(CN(c5ccc6cc(-c7ccccc7O)nnc6c5)C4)C3)no2)C(C)C)cc1 [Compound 154, (2S,4R)-4-hydroxy-1-((R)-2-(3-(2-(3-(2-hydroxyphenyl)cinnolin-7-yl)-2,6-diazaspiro [3.5]nonan-6-yl)isoxazol-5-yl)-3-methylbutanoyl)-N-((S)-1-(4-(4-methylthiazol-5-yl)phenyl)ethyl)pyrrolidine-2-carboxamide]	< 10 nM	< 10 nM	> 75%	A (“A” indicates maximum degradation ≥75%)
Cc1ncsc1-c1ccc([C@H](C)NC(=O)[C@@H]2C[C@@H](O)CN2C(=O)[C@@H](c2cc(N3CC4(C3)CN(c3cc5nnc(-c6ccccc6O)cc5cc3Cl)C4)no2)C(C)C)cc1 [Compound 157, (2S,4R)-1-((R)-2-(3-(6-(6-chloro-3-(2-hydroxyphenyl)cinnolin-7-yl)-2,6-diazaspiro[3.3]heptan-2-yl)isoxazol-5-yl)-3-methylbutanoyl)-4-hydroxy-N-((S)-1-(4-(4-methylthiazol-5-yl)phenyl)ethyl)pyrrolidine-2-carboxamide]	< 10 nM	< 10 nM	> 50%	A (“A” indicates maximum degradation ≥75%)
Cc1ncsc1-c1ccc([C@H](C)NC(=O)[C@@H]2C[C@@H](O)CN2C(=O)[C@@H](c2ccnc(N3CC4(CN(c5ccc6nnc(-c7ccccc7O)cc6c5)C4)C3)c2)C(C)C)cc1 [Compound 160, (2S,4R)-4-hydroxy-1-[(2R)-2-(2-{6-[3-(2-hydroxyphenyl)cinnolin-6-yl]-2,6-diazaspiro[3.3]heptan-2-yl}pyridin-4-yl)-3-methylbutanoyl]-N-[(1S)-1-[4-(4-methyl-1,3-thiazol-5-yl)phenyl]ethyl]pyrrolidine-2-carboxamide]			< 50%	B (“B” indicates maximum degradation ≥50%)
Cc1ncsc1-c1ccc([C@H](C)NC(=O)[C@@H]2C[C@@H](O)CN2C(=O)[C@@H](c2cc(N3CCOC4(CN(c5ccc6cc(-c7ccccc7O)nnc6c5)C4)C3)no2)C(C)C)cc1 [Compound 162, (2S,4R)-4-hydroxy-1-((R)-2-(3-(2-(3-(2-hydroxyphenyl)cinnolin-7-yl)-5-oxa-2,8-diazaspiro[3.5]nonan-8-yl)isoxazol-5-yl)-3-methylbutanoyl)-N-((S)-1-(4-(4-methylthiazol-5-yl)phenyl)ethyl)pyrrolidine-2-carboxamide]	< 10 nM	< 10 nM	> 75%	A (“A” indicates maximum degradation ≥75%)
